Assay results as given in patent publication US6479487B1, “6, 9-disubstituted 2-[trans-(4-aminocyclohexyl)amino] purines” (Aventis Pharmaceuticals Inc., priority 1998, dated 2002).
Several values for one entry are separate records, joined by “and”; a condition that tells them apart may be missing. Equal entries are not always repeated. Structures can show the parent of a compound that is named as a salt. Where two headings read alike, the source gives them in different places.

Experiments:
[1] = target: T1, cdk2/cyclin E (Homo sapiens, UniProt P24941); assay: Cyclin-Dependent Kinase 2 Assay (cdk2/cyclin E, GST-Rb substrate); type: biochemical; settings: recombinant cdk2/cyclin E, 10 μM ATP, 30 min at 30° C., several values in a cell = separate determinations, read-out: CDK-2 Inhibition IC50
T1 construct: made in house; host or cells: insect cells (baculovirus co-infection)
Experimental: Substrate: GST-Rb as described above for cdk4/cyclin D1
Assay conditions for cdk2/cyclin E were identical to those for cdk4/cyclin D1 including the substrate. The concentration of recombinant cdk2/cyclin E in the assay was 0.1 μg per 100 μl assay. Incubation was for 30 min at 30° C.

[2] = target: T2, cdk4/cyclin D1 (Homo sapiens, UniProt P11802); assay: Cyclin-dependent Kinase 4 Assay (cdk4/cyclin D1, GST-Rb substrate); type: biochemical; settings: cdk4/cyclin D1 insect cell lysate, 10 μM ATP, 30 min at 37° C., several values = separate determinations, read-out: CDK4 Inhibition IC50
T2 construct: made in house; host or cells: Sf9 insect cells (Bac-to-Bac baculovirus, pFastBac)
How it was run: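 IC50 against cdk4 measured by scintillation counting of bead-bound GST-Rb (0.5 μg) after filtration and four TNEN washes. Reaction was 30 min at 37 °C in HEPES pH 7.5 buffer with 10 mM MgCl2 and 1 mM EGTA. Enzyme source was 0.1 μg Sf9 lysate coinfected with cdk4 and cyclin D1.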

[3] = tested on: MDA-MB-231; assay: In vitro tumor cell proliferation, MDA-MB-231; type: cell-based, human; settings: sulforhodamine B or CyQUANT assay, many values given with an undefined *, read-out: In vitro Tumor Cell Proliferation (IC50, μM) Breast MDA-MB-231
How it was run: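 Proliferation quantified by SRB staining of TCA-fixed cells after 3 days of drug plus 4 days with replenished drug, following overnight attachment at 37 °C.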

[4] = tested on: MDA-MB-435; assay: In vitro tumor cell proliferation, MDA-MB-435; type: cell-based; settings: values given with an undefined *, read-out: In vitro Tumor Cell Proliferation (IC50, μM) Breast MDA-MB-435
How it was run: (§1)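 Growth was quantified by sulforhodamine B staining of TCA-fixed cells after 3 days of drug plus 4 more days with fresh drug, or by CyQUANT after 3 days of drug and freezing at −80° C. Counted viable cells were plated and incubated overnight at 37° C before drug.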

[5] = tested on: HT-29; assay: In vitro tumor cell proliferation, HT-29; type: cell-based, human; settings: many values given with an undefined *, read-out: In vitro Tumor Cell Proliferation (IC50, μM) Colon HT-29
How it was run: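 Growth was quantified either with CyQUANT, plates frozen at −80° C after 3 days of drug, or by sulforhodamine B staining of TCA-fixed cells after 3 days of drug plus 4 days with fresh drug. Trypan blue-excluding HT-29 cells were plated overnight at 37° C before dosing.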

[6] = tested on: Colo-205; assay: In vitro tumor cell proliferation, Colo-205; type: cell-based; settings: values given with an undefined *, read-out: In vitro Tumor Cell Proliferation (IC50, μM) Colon Colo-205
How it was run: as §1

[7] = tested on: A549; assay: In vitro tumor cell proliferation, A549; type: cell-based, human; settings: many values given with an undefined *, read-out: In vitro Tumor Cell Proliferation (IC50, μM) Lung A549
How it was run: as §1

[8] = tested on: DMS-114; assay: In vitro tumor cell proliferation, DMS-114; type: cell-based, human; settings: many values given with an undefined *, read-out: In vitro Tumor Cell Proliferation (IC50, μM) Lung DMS-114
How it was run: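 Human small cell lung carcinoma DMS-114 cells plated overnight, then drug-treated for 3 days, medium and drug renewed, and incubated 4 more days. Growth read by sulforhodamine B staining after TCA fixation; alternatively by CyQUANT after 3 days' drug exposure and freezing at −80 °C.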

[9] = tested on: PC-3; assay: In vitro tumor cell proliferation, PC-3; type: cell-based, human; settings: many values given with an undefined *, read-out: In vitro Tumor Cell Proliferation (IC50, μM) Prostate PC-3
How it was run: as §1

[10] = tested on: DU145; assay: In vitro tumor cell proliferation, DU145; type: cell-based, human; settings: many values given with an undefined *, read-out: In vitro Tumor Cell Proliferation (IC50, μM) Prostate DU145
How it was run: as §1

[11] = Homo sapiens, MDA-MB-231, MDA-MB-231
[12] = Homo sapiens, MDA-MB-435, MDA-MB-435
[13] = Homo sapiens, COLO 205, Colo-205

T2 sequence (P11802 whole entry): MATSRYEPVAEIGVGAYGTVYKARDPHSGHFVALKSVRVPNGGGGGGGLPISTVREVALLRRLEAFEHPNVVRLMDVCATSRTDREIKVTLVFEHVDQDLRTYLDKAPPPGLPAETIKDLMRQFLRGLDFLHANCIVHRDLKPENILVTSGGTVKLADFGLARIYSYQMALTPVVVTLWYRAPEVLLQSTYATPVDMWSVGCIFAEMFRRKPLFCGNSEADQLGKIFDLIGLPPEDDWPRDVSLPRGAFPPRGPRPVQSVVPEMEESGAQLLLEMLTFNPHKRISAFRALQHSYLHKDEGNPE
T2 sequence (P24385 whole entry partner): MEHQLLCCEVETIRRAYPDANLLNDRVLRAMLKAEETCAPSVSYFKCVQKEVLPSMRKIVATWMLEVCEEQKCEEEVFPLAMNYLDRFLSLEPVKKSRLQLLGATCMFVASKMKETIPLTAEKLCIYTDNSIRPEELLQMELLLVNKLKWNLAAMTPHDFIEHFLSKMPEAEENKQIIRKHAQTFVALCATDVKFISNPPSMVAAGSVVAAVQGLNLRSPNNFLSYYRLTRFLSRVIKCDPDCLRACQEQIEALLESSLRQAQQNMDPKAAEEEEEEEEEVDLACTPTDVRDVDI

| SMILES | IC50 [1] | IC50 [2] | IC50 [3, 11] | IC50 [4, 12] | IC50 ([4]; MDA-MB-435, dihydrochloride) | IC50 ([5]; Homo sapiens, HT-29, HT-29) | IC50 [6, 13] | IC50 ([7]; Homo sapiens, A549, A549) | IC50 ([8]; DMS-114, dihydrochloride) | IC50 ([8]; Homo sapiens, DMS-114, DMS-114) | IC50 ([9]; Homo sapiens, PC-3, PC-3) | IC50 ([9]; PC-3, dihydrochloride) | IC50 ([10]; DU145, dihydrochloride) | IC50 ([10]; Homo sapiens, DU-145, DU145) | IC50 ([3]; MDA-MB-231) | IC50 ([4]; MDA-MB-435) | IC50 ([7]; A549) | IC50 ([8]; DMS-114) | IC50 ([9]; PC-3) | further results |
| --- | --- | --- | --- | --- | --- | --- | --- | --- | --- | --- | --- | --- | --- | --- | --- | --- | --- | --- | --- | --- |
| CCCCCCCCCCCCNc1nc(N[C@H]2CC[C@H](N)CC2)nc2c1ncn2C1CCCC1 [Example 36, 2-[Trans-(4-aminocyclohexyl)amino]-6-(dodecylamino)-9-cyclopentylpurine dihydrochloride] | 520 nM | 4500 nM | 3.2 µM | 4.2 µM | 2.2 µM | 4 µM | 3.1 µM | 5.6 µM | 3.1 µM | 3.6 µM | 3.1 µM | 3.8 µM | 3.4 µM | 5.4 µM | – | – | – | – | – | IC50 ([7]; A549, dihydrochloride): 3.1 µM |
| COc1ccc(CNc2nc(N[C@H]3CC[C@H](N)CC3)nc3c2ncn3C(C)C)cc1 [Example 37, 2-[Trans-(4-aminocyclohexyl)amino]-6-[(4-methoxybenzyl)amino]-9-(2-propyl)purine dihydrochloride] | 690 nM | 5200 nM | 3 µM | 3.4 µM | 3.2 µM and 2.7 µM | 3.2 µM | 1.7 µM | 1.3 µM | 1.7 µM and 1.5 µM | 1.3 µM | 2.3 µM | 2.8 µM and 2.5 µM | 2.6 µM and 3 µM | 2.7 µM | – | – | – | – | – | IC50 ([5]; HT-29, dihydrochloride): 1.8 µM and 2.5 µM; IC50 ([6]; Colo-205, dihydrochloride): 1.6 µM and 1.3 µM |
| N[C@H]1CC[C@H](Nc2nc(NC3CCN(Cc4cccc(Cl)c4)CC3)c3ncn(C4CCCC4)c3n2)CC1 [Example 42, 2-[Trans-(4-aminocyclohexyl)amino]-6-[4-(1-(3-chlorobenzyl))piperidinylamino]-9-cyclopentylpurine] | 200 nM and 150 nM | 1000 nM and 1200 nM and 2000 nM | 0.24 µM | 0.37 µM | – | 0.25 µM | 0.19 µM | 0.16 µM | – | 0.27 µM | 0.21 µM | – | – | 0.22 µM | 0.3 µM | 0.44 µM | 0.14 µM | 0.2 µM | 0.34 µM | IC50 ([5]; HT-29): 0.28 µM; IC50 ([10]; DU145): 0.23 µM |
| Cc1ccccc1CN1CCC(Nc2nc(N[C@H]3CC[C@H](N)CC3)nc3c2ncn3C2CCCC2)CC1 [Example 44, 2-[Trans-(4-aminocyclohexyl)amino]-6-[4-(1-(2-methylbenzyl))piperidinylamino]-9-cyclopentylpurine] | 230 nM and 130 nM and 340 nM | 2300 nM | 0.2 µM | 0.24 µM | – | 0.22 µM | 0.16 µM | 0.15 µM | – | 0.28 µM | 0.16 µM | – | – | 0.16 µM | 0.22 µM | 0.27 µM | 0.09 µM | 0.21 µM | 0.22 µM | IC50 ([6]; Colo-205): 0.17 µM |
